Ten compounds from US20120053053A1, “PYRIMIDINE DERIVATIVES AND THEIR USE AS HERBICIDES” (SYNGENTA CROP PROTECTION, LLC, priority 2009, published 2012) can be followed below.

Values joined by “and” are separate entries in the source; they are usually repeats but may differ in a detail not shown here. Equal entries are not always repeated.

What all share (format): in vivo
The subject of experiment [1] is Alopecurus myosuroides (ALOMY). Description: Pre-emergence biological efficacy (percentage damage). The settings on record: dose 1,000 g/ha, evaluated after 13 days, 100=total damage, 0=no damage; for pest or weed control at 1000 g/ha: Alopecurus myosuroides, 312 h. Put shortly:
(§1)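 Sow seeds in pots of standard soil; hold 1 day in glasshouse (24/16 °C, 14 h light, 65% humidity). Spray aqueous solution from acetone/water (50:50) with 0.5% Tween 20 at 250 or 1000 g/ha. Grow on, watering twice daily; rate damage at 13 days.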

In experiment [2] the test system is Amaranthus retoflexus (AMARE). The description is as above. The settings on record: dose 1,000 g/ha, evaluated after 13 days, 100=total damage, 0=no damage; for pest or weed control at 1000 g/ha: Amaranthus retroflexus, 312 h. The procedure, abridged: as §1
For experiment [3], the system named is Echinochloa crus-galli (ECHCG). The experiment is described as above. The settings on record: dose 1,000 g/ha, evaluated after 13 days, 100=total damage, 0=no damage; for pest or weed control at 1000 g/ha: Echinochloa crus-galli, 312 h. Put shortly:
as §1

In experiment [4] the test system is Ipomea hederaceae (IPOHE). Described as above. The settings on record: dose 1,000 g/ha, evaluated after 13 days, 100=total damage, 0=no damage; for pest or weed control at 1000 g/ha: Ipomoea hederacea, 312 h. The procedure, abridged:
as §1

Experiment [5] deals with Setaria faberi (SETFA). The description is as above. The following applies: dose 1,000 g/ha, evaluated after 13 days, 100=total damage, 0=no damage; for pest or weed control at 1000 g/ha: Setaria faberi, 312 h. Put shortly:
as §1

Experiment [6] has as its system Solanum nigrum (SOLNI). Described as above. The following applies: dose 1,000 g/ha, evaluated after 13 days, 100=total damage, 0=no damage; for pest or weed control at 1000 g/ha: Solanum nigrum, 312 h. The procedure, abridged:
as §1

Experiment [7] concerns Alopecurus myosuroides (ALOMY). Description: Post-emergence biological efficacy (percentage damage). The settings on record: dose 1,000 g/ha, evaluated after 13 days, 100=total damage, 0=no damage; for pest or weed control at 1000 g/ha: Alopecurus myosuroides, 312 h. The procedure, abridged:
(§2)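 Pot-grown plants are cultivated 8 days under glasshouse conditions (24/16 °C, 14 h light, 65% humidity), sprayed at a dose of 250 or 1000 g/ha, kept under the same conditions with twice-daily watering, and rated for damage after 13 days.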

Experiment [8] concerns Amaranthus retoflexus (AMARE). The description is as above. The following applies: dose 1,000 g/ha, evaluated after 13 days, 100=total damage, 0=no damage; for pest or weed control at 1000 g/ha: Amaranthus retroflexus, 312 h. Put shortly:
as §2

For experiment [9], the system named is Echinochloa crus-galli (ECHCG). The experiment is described as above. The following applies: dose 1,000 g/ha, evaluated after 13 days, 100=total damage, 0=no damage; for pest or weed control at 1000 g/ha: Echinochloa crus-galli, 312 h. The procedure, abridged:
as §2

Experiment [10] deals with Ipomea hederaceae (IPOHE). Described as above. The settings on record: dose 1,000 g/ha, evaluated after 13 days, 100=total damage, 0=no damage; for pest or weed control at 1000 g/ha: Ipomoea hederacea, 312 h. Put shortly: as §2
The test system of experiment [11] is Setaria faberi (SETFA). Described as above. The settings on record: dose 1,000 g/ha, evaluated after 13 days, 100=total damage, 0=no damage; for pest or weed control at 1000 g/ha: Setaria faberi, 312 h. Put shortly: as §2
Experiment [12] relates to Solanum nigrum (SOLNI). Described as above. The settings on record: dose 1,000 g/ha, evaluated after 13 days, 100=total damage, 0=no damage; for pest or weed control at 1000 g/ha: Solanum nigrum, 312 h. Put shortly: as §2

A word on the pest or weed control: it is how far the test organism was held down. A high value points to strong suppression. Consider `COC(=O)c1nc(C2CC2)nc(N(C)C)c1C` [Compound 2-221, 2-Cyclopropyl-4-dimethylamino-6-methoxycarbonyl-5-methylpyrimidine], for which the pest or weed control at 1000 g/ha in experiment [1] amounted to 30%; in experiment [2] it was 60%; in experiment [3], 0%; in experiment [4], 70%; with Setaria faberi (SETFA) [5] it was 0%; with Solanum nigrum (SOLNI) [6], 60%. Also, the pest or weed control at 1000 g/ha amounted to 20% in experiment [7]; 100% in experiment [8]; 70% in [9]; 80% in experiment [10]; 60% in the experiment with Setaria faberi (SETFA) [11]; 80% with Solanum nigrum (SOLNI) [12].
Regarding `C=Cc1c(SC)nc(C2CC2)nc1C(=O)OC` [Compound 2-400, 2-cyclopropyl-5-ethenyl-6-methoxycarbonyl-4-methylthio-pyrimidine], the pest or weed control at 1000 g/ha in [1] worked out at 0%; in experiment [2] it was 90%; in [3] it was 0%; in [4], 60%; in the experiment on Setaria faberi (SETFA) [5], 0%; in the experiment with Solanum nigrum (SOLNI) [6], 100%. The pest or weed control at 1000 g/ha in experiment [7] came to 0%; in [8], 80%; in [9], 0%; in [10], 60%; in the experiment on Setaria faberi (SETFA) [11], 0%; in the experiment with Solanum nigrum (SOLNI) [12] it was 100%.
Turning to `CCc1c(N)nc(-c2ccc(C(F)(F)F)cc2)nc1C(=O)OC` [Compound 31-42, 4-amino-5-ethyl-6-methoxycarbonyl-2-(4-trifluoro-methylphenyl)-pyrimidine], the pest or weed control at 1000 g/ha (in experiment [1]; in experiment [2]; in experiment [3]; in experiment [4]; in the experiment on Setaria faberi (SETFA) [5]; in the experiment on Solanum nigrum (SOLNI) [6]) was 0% in each case. The pest or weed control at 1000 g/ha in experiment [7] worked out at 0%; in experiment [8], 0%; in [9], 0%; in experiment [10], 0%; with Setaria faberi (SETFA) [11] it was 0%; with Solanum nigrum (SOLNI) [12], 10%.
For `C=Cc1c(N)nc(-c2ccc(F)cc2)nc1C(=O)OC` [Compound 41-61, 4-Amino-5-ethenyl-2-(4-fluorophenyl)-6-methoxycarbonyl-pyrimidine], the pest or weed control at 1000 g/ha amounted to 20% in experiment [1]; 100% in experiment [2]; 10% in experiment [3]; 40% in experiment [4]; 10% in the experiment with Setaria faberi (SETFA) [5]; 0% with Solanum nigrum (SOLNI) [6]. Besides, the pest or weed control at 1000 g/ha in experiment [7] was 20%; in experiment [8] it was 100%; in experiment [9] it was 10%; in experiment [10], 60%; in the experiment with Setaria faberi (SETFA) [11], 10%; in the experiment with Solanum nigrum (SOLNI) [12], 90%.
Take `C/C=C\c1c(N)nc(-c2ccc(Cl)c(N(C)C)c2F)nc1C(=O)OC` [33-62 (Z)]: the “Percentage damage ALOMY, pre-emergence” value in experiment [1] stood at 30%. In [2], the “Percentage damage AMARE, pre-emergence” value worked out at 70%. Also, the “Percentage damage ECHCG, pre-emergence” value in [3] stood at 30%. For the same compound, the “Percentage damage IPOHE, pre-emergence” value in experiment [4] came to 20%. In addition, the “Percentage damage SETFA, pre-emergence” value with Setaria faberi (SETFA) [5] turned out to be 30%. In addition, the “Percentage damage SOLNI, pre-emergence” value in the experiment with Solanum nigrum (SOLNI) [6] amounted to 60%. The “Percentage damage ALOMY, post-emergence” value in experiment [7] is 80% and 60%. In [8], the “Percentage damage AMARE, post-emergence” value is on record as 100%. Further, the “Percentage damage ECHCG, post-emergence” value in experiment [9] is 80% and 70%. In experiment [10], the “Percentage damage IPOHE, post-emergence” value was 40% and 30%. The “Percentage damage SETFA, post-emergence” value with Setaria faberi (SETFA) [11] is 80% and 70%. In addition, the “Percentage damage SOLNI, post-emergence” value in the experiment with Solanum nigrum (SOLNI) [12] is reported as 80%.
Turning to `C=Cc1c(N)nc(-c2ccc(Cl)c(OC)c2)nc1C(=O)OC` [Compound 26-61, 4-Amino-2-(4-chloro-3-methoxyphenyl)-5-ethenyl-6-methoxycarbonyl-pyrimidine], the pest or weed control at 1000 g/ha in [1] is 0%; in experiment [2], 100%; in [3], 0%; in experiment [4], 20%; in the experiment on Setaria faberi (SETFA) [5], 0%; in the experiment with Solanum nigrum (SOLNI) [6], 80%. Further, the pest or weed control at 1000 g/ha came to 50% in experiment [7]; 100% in [8]; 60% in experiment [9]; 70% in experiment [10]; 0% in the experiment with Setaria faberi (SETFA) [11]; 80% in the experiment on Solanum nigrum (SOLNI) [12].
Turning to `COC(=O)c1nc(-c2ccc(Cl)c(OC)c2F)nc(N)c1C(C)=O` [Compound 27-53, 4-Amino-2-(4-chloro-2-fluoro-3-methoxy-phenyl)-6-methoxycarbonyl-5-methylcarbonyl-pyrimidine], the pest or weed control at 1000 g/ha was found to be 20% in experiment [1]; 90% in [2]; 20% in experiment [3]; 100% in experiment [4]; 10% with Setaria faberi (SETFA) [5]; 100% in the experiment with Solanum nigrum (SOLNI) [6]. The pest or weed control at 1000 g/ha in [7] stood at 30%; in [8] it was 100%; in [9], 30%; in [10], 60%; in the experiment on Setaria faberi (SETFA) [11], 40%; in the experiment with Solanum nigrum (SOLNI) [12], 90%.
Take `COC(=O)c1nc(-c2ccc(C(F)(F)F)cc2)nc(N)c1C(C)=O` [Compound 31-53, 4-amino-6-methoxycarbonyl-5-methylcarbonyl-2-(4-trifluoromethylphenyl)-pyrimidine]: the pest or weed control at 1000 g/ha in experiment [1] stood at 80%; in [2], 100%; in [3], 90%; in [4], 90%; in the experiment with Setaria faberi (SETFA) [5], 90%; with Solanum nigrum (SOLNI) [6], 100%. Besides, the pest or weed control at 1000 g/ha in [7] was determined as 90%; in [8], 100%; in experiment [9] it was 100%; in [10], 90%; in the experiment on Setaria faberi (SETFA) [11], 100%; in the experiment on Solanum nigrum (SOLNI) [12], 100%.
Take `COC(=O)c1nc(C2CC2)nc(N)c1C#C[Si](C)(C)C` [Compound 2-78, 4-amino-2-cyclopropyl-6-methoxycarbonyl-5-(trimethylsilylethynyl)-pyrimidine]: the pest or weed control at 1000 g/ha in experiment [1] worked out at 20%; in experiment [2] it was 90%; in experiment [3] it was 30%; in experiment [4], 100%; in the experiment on Setaria faberi (SETFA) [5], 10%; in the experiment on Solanum nigrum (SOLNI) [6] it was 90%. For the same compound, the pest or weed control at 1000 g/ha in [7] was found to be 30%; in experiment [8], 100%; in experiment [9], 60%; in [10], 100%; in the experiment on Setaria faberi (SETFA) [11], 60%; in the experiment on Solanum nigrum (SOLNI) [12], 100%.
For the compound `C=C(C)c1c(N)nc(-c2ccc(C(F)(F)F)cc2)nc1C(=O)OC` [Compound 31-64, 4-Amino-6-methoxycarbonyl-5-(prop-1-en-2-yl)-2-(4-trifluoromethyl-phenyl)-pyrimidine], the pest or weed control at 1000 g/ha (in experiment [1]; in experiment [2]; in [3]; in experiment [4]; in the experiment with Setaria faberi (SETFA) [5]; in the experiment with Solanum nigrum (SOLNI) [6]) was 0% in each case. Moreover, the pest or weed control at 1000 g/ha in [7] was found to be 0%; in experiment [8], 40%; in experiment [9], 0%; in experiment [10], 60%; in the experiment with Setaria faberi (SETFA) [11] it was 20%; in the experiment with Solanum nigrum (SOLNI) [12], 60%.
